{
  "source": "paper PMC6268373",
  "about": "“Systematic Study of the Physicochemical Properties of a Homologous Series of Aminobisphosphonates” (Molecules, 2012)",
  "key": {"[1]": {"assay": "Protonation constants by (traditional) potentiometric titration (TPT), SUPERQUAD", "conditions": "0.1 M NaNO3, 25 °C; for pKa: log K, TPT", "source_text": "Results were obtained from […] as overall stability constants (log β values); following the chosen zero level H2L^2−. This zero level H2L^2− was chosen in the calculations to avoid any accumulation of errors of protonation constants at different pH ranges. The log β results for reactions (4) and (5) obtained in the final refinements are listed in Table S3 (see Supporting Information) with error limits (±3σ), number of points/number of titrations and χ^2/Σ statistics.\nThe details of the experiments using (traditional) potentiometric titration are presented in the Supporting Information. The results of the determination by Sirius instrument are shown in the Supporting Information. Potentiometric titrations of the compounds were performed with the PCA200 apparatus (Sirius Analytical Instruments Ltd, Forest Row, East Sussex, UK).\nTable S2. The effect of pH on aqueous solubility (mg/L) of aminoalkylbis(phosphonates) […]\nSolubility (g/L) of Compound\nDetermination of the Protonation Constants Using (traditional) Potentiometric Titration. Reagents:\nAqueous 0.1 M NaOH was prepared from Titrisol ampoules (Merck) and 0.1 M HNO3 from Convol ampoules (BDH). The background solution was prepared by dissolving NaNO3 in deionised water.\nThe NaNO3 and NaCl used in reference electrode were p.a. grade (Merck). The water used in the dilutions and titration solutions was purified with Milli-RO and Milli-Q water purification systems […]\nPotentiometric measurements: The protonation equilibria was studied in aqueous 0.1 M NaNO3 at 25.0 ± 0.1 °C through a series of potentiometric EMF titrations carried out with a Schott-Geräte GmbH […]\nThe cell arrangement for the measurement of the hydrogen ion concentration [H+] was as follows:\n−RE […] equilibrium solution […] GE+ (1) where GE denotes a glass electrode (Schott N2680), and RE is Hg, Hg2Cl2 […] 0.01 M NaCl, 0.09 M NaNO3. Expression (2) is valid assuming that the activity coefficients are constant.\nThe cell parameter E0 and the liquid junction coefficient jH, valid in acidic solutions, were determined for each titration by adding a known amount of HNO3 to the background electrolyte. The value of the liquid junction coefficient jOH, valid in basic solutions, was determined periodically. Only stable EMF readings were used in the calculations.\nDuring the measurements of the protonation equilibria, aqueous 0.1 M NaOH or 0.1 M HNO3 was […]\nFour to eight independent titrations were carried out for each ligand. The number of data points used in […]\nData treatment: Protonation and deprotonation of the ligands were controlled by addition of HNO3 or NaOH. The curves of ZH versus pH were drawn to visualize the experimental data sets. ZH describes the average number of H+ ions added or liberated per mole of ligand and is given by the relationship […]\nwhere CH denotes the total concentration of protons calculated over the zero level H2L2−.\nIn the evaluation of the equilibrium constants, the following two-component equilibria were utilized:\nH2L2− ⇋ H2-xL(2+x)– + xH+ , x = 1–2; β–x (4) xH+ + H2L2− ⇋ Hx+2Lx–2, x = 1–3; βx (5)\nMathematical analysis of the systems involves a search for protonation models and equilibrium constants that best describe the experimental data. The calculations were carried out with the computer […]\n1200). The sample standard deviation Σ and the χ2 statistics used as criteria in the selection of the models were those provided by the program. As a means to improve the confidence level, the error limits for log β values determined in this study are reported as three times the standard deviation estimated by the program.\nFigure S2. ZH vs. pH for protonation of compounds (a) 1; (b) 2; (c) 3; (d) 4 and (e) 5."}, "[2]": {"assay": "Thermal analysis (TG/DTA and TGA 7)", "type": "physicochemical", "conditions": "for Td: 5 °C/min; for Temp. range of 1st cleavage: lower limit taken at 0.5 wt-%", "experimental": "Thermal decomposition paths with evaluation of crystal water content were obtained parallel with two instruments; Perkin Elmer STA 6000 thermogravimetric TG/DTA and Perkin Elmer TGA 7 analyzers (Perkin Elmer, Massachusetts, USA). Measurements were carried out in an open platinum crucible (the higher 5 mm crucible was used in TG/DTA and a shallower 2 mm crucible in TGA 7) under air atmosphere (flow rate of 45 mL/min) with a heating rate of 5 °C/min over the temperature range of 25−700 °C. The temperature calibration of STA 6000 was made using melting points of indium (156.60 °C) and zinc (419.5 °C) standards. For TGA 7 magnetic Curie-point calibration technique (Alumel, Ni, Perkalloy, Fe) was used. The weight balance of both instruments was calibrated by measuring a standard weight of 50 mg at room temperature. The sample weights used in the measurements were about 4–8 mg, and for each bisphosphonate, it was attempted to keep the same on both instruments. The melting/dehydration/decomposition behavior of the compounds was also visually monitored using a Stuart Scientific SMP3 melting point apparatus."}, "[3]": {"conditions": "cited from earlier work; for logK, pKa3: H2L2− + H+ ⇋ H3L−; for logK, pKa2: H3L− + H+ ⇋ H4L; for logK, pKa4: HL3− + H+ ⇋ H2L2−"}, "[4]": {"assay": "Effect of pH on aqueous solubility", "conditions": "21 °C, thermodynamic from solid", "description": "(§1) A Jasco V-530 UV/Vis spectrophotometer was used for phosphorus determination at 880 nm wavelength. Filtered liquid samples were diluted to the appropriate volume with Milli-Q water and were digested with the persulphate oxidation technique in acidic medium at elevated temperature to convert aminobisphosponates to orthophosphate. In an acidic medium, ammonium molybdate and antimony potassium tartrate react with orthophosphate to form a phosphomolybdic acid that is reduced to intensively colored molybdenum blue by ascorbic acid [30].\n(§2) The mixture containing an excess of the studied compound was first agitated for predetermined time with magnetic stirrer and before taking the sample mixture was allowed to stand for 24 h without stirring. The sample (about 5 mL) was taken from liquid above the solids, pH was measured and the sample was filtered through 0.2 µm membrane filter to remove any possible insoluble particles. The phosphorus concentration in the filtered sample solution was determined by using the spectrophotometric method described above."}, "[5]": {"assay": "Effect of temperature on aqueous solubility", "conditions": "water, thermodynamic from solid", "description": "as §1, §2"}, "[6]": {"assay": "pKa determination with Sirius instrument (PCA200)"}, "[7]": {"assay": "Aqueous solubility of saturated solution at 21 °C (phosphorus determination by molybdenum blue spectrophotometry)", "conditions": "21 °C", "description": "as §1, §2"}, "[8]": {"conditions": "overall protonation, zero level H2L2−"}},
  "note": "Read-outs that look alike come from different tables or passages of the source.",
  "data": [
    {"smiles": "NCCCCCC(O)(P(=O)(O)O)P(=O)(O)O", "note": "[Compound 4, (6-Amino-1-hydroxyhexylidene)bisphosphonic acid, reference compound]", "values": [
      {"measurement": "pKa", "setting": "[1]; pKa1 (H4L + H+ ⇋ H5L+), approximate values", "value": 0.94},
      {"measurement": "pKa", "setting": "[1]; pKa2 (H3L− + H+ ⇋ H4L)", "value": 2.38},
      {"measurement": "pKa", "setting": "[1]; pKa3 (H2L2− + H+ ⇋ H3L−)", "value": 6.62},
      {"measurement": "pKa", "setting": "[1]; pKa4 (HL3− + H+ ⇋ H2L2−)", "value": 10.9},
      {"measurement": "pKa", "setting": "[1]; pKa5 (L4− + H+ ⇋ HL3−)", "value": 11.9},
      {"measurement": "logβx ± 3σ, x = 1 (H3L−)", "setting": "[1]; [8]", "value": "6.62 ± 0.02"},
      {"measurement": "logβx ± 3σ, x = 2 (H4L)", "setting": "[1]; [8]", "value": "9.00 ± 0.03"},
      {"measurement": "logβx ± 3σ, x = 3 (H5L+)", "setting": "[1]; [8]", "value": "9.94 ± 0.12"},
      {"measurement": "logβx ± 3σ, x = −1 (HL3−)", "setting": "[1]; [8]", "value": "−10.86 ± 0.02"},
      {"measurement": "logβx ± 3σ, x = −2 (L4−)", "setting": "[1]; [8]", "value": "−22.80 ± 0.02"},
      {"measurement": "Onset temperature of first cleavage", "setting": "[2]; TG/DTA, higher crucible", "value": 208, "unit": "°C"},
      {"measurement": "Td", "setting": "[2]; TG/DTA, higher crucible, air", "value": 208, "unit": "°C"},
      {"measurement": "Temp. range of 1st cleavage", "setting": "[2]; TG/DTA, higher crucible", "value": "196–260 °C"},
      {"measurement": "Onset temperature of first cleavage", "setting": "[2]; TGA 7, shallow crucible", "value": 215, "unit": "°C"},
      {"measurement": "Td", "setting": "[2]; TGA 7, shallow crucible, air", "value": 215, "unit": "°C"},
      {"measurement": "Temp. range of 1st cleavage", "setting": "[2]; TGA 7, shallow crucible", "value": "183–251 °C"},
      {"measurement": "Td (decomposition onset)", "setting": "[2]; average from both instruments, air, heating rate 5 °C/min", "value": 212, "unit": "°C"},
      {"measurement": "logK, pKa3", "setting": "[3]; ref 4", "value": 6.50},
      {"measurement": "logK, pKa3", "setting": "[3]; ref 13", "value": 5.49},
      {"measurement": "logK, pKa2", "setting": "[3]; ref 4", "value": 2.45},
      {"measurement": "logK, pKa2", "setting": "[3]; ref 13", "value": 2.90},
      {"measurement": "logK, pKa4", "setting": "[3]; ref 4", "value": 10.66},
      {"measurement": "logK, pKa4", "setting": "[3]; ref 13", "value": 8.63},
      {"measurement": "logK, pKa5", "setting": "[3]; L4− + H+ ⇋ HL3−, ref 13", "value": 10.9},
      {"measurement": "solubility at 30 min", "setting": "[4]; pH 0, aqueous buffer", "value": 6340, "unit": "µg/mL"},
      {"measurement": "solubility at 30 min", "setting": "[4]; pH 1, aqueous buffer", "value": 3840, "unit": "µg/mL"},
      {"measurement": "solubility at 30 min", "setting": "[4]; pH 2, aqueous buffer", "value": 2900, "unit": "µg/mL"},
      {"measurement": "solubility at 30 min", "setting": "[4]; pH 3, aqueous buffer", "value": 2970, "unit": "µg/mL"},
      {"measurement": "solubility at 30 min", "setting": "[4]; pH 4, aqueous buffer", "value": 3090, "unit": "µg/mL"},
      {"measurement": "solubility at 30 min", "setting": "[4]; pH 5, aqueous buffer", "value": 3220, "unit": "µg/mL"},
      {"measurement": "solubility at 30 min", "setting": "[4]; pH 6, aqueous buffer", "value": 3390, "unit": "µg/mL"},
      {"measurement": "solubility at 30 min", "setting": "[4]; pH 7, aqueous buffer", "value": 3420, "unit": "µg/mL"},
      {"measurement": "solubility at 30 min", "setting": "[4]; pH 8, aqueous buffer", "value": 3530, "unit": "µg/mL"},
      {"measurement": "solubility at 30 min", "setting": "[4]; pH 9, aqueous buffer", "value": 3080, "unit": "µg/mL"},
      {"measurement": "solubility at 30 min", "setting": "[4]; pH 10, aqueous buffer", "value": 3180, "unit": "µg/mL"},
      {"measurement": "solubility at 30 min", "setting": "[4]; pH 11, aqueous buffer", "value": 3380, "unit": "µg/mL"},
      {"measurement": "solubility at 24 h", "setting": "[5]; 4 °C", "value": 4470, "unit": "µg/mL"},
      {"measurement": "solubility at 24 h", "setting": "[5]; 7.6 °C", "value": 4600, "unit": "µg/mL"},
      {"measurement": "solubility at 24 h", "setting": "[5]; 21 °C", "value": 5170, "unit": "µg/mL"},
      {"measurement": "solubility at 24 h", "setting": "[5]; 30 °C", "value": 5770, "unit": "µg/mL"},
      {"measurement": "solubility at 24 h", "setting": "[5]; 40 °C", "value": 7620, "unit": "µg/mL"},
      {"measurement": "solubility at 24 h", "setting": "[5]; 50 °C", "value": 9550, "unit": "µg/mL"},
      {"measurement": "pKa 2 (Sirius)", "setting": "[6]", "value": 2.99},
      {"measurement": "pKa 3 (Sirius)", "setting": "[6]", "value": 6.36},
      {"measurement": "pKa 4 (Sirius)", "setting": "[6]", "value": 6.82},
      {"measurement": "solubility at 30 min", "setting": "[7]; water, thermodynamic from solid", "value": 3420, "unit": "µg/mL"},
      {"measurement": "pH of saturated solution", "setting": "[7]; saturated aqueous solution, agitation time 30 min", "value": 2.26}
    ]}
  ]
}
